We go through 20 compounds from ChEMBL document CHEMBL1154364, “2-Benzimidazolyl-9-(chroman-4-yl)-purinone derivatives as JAK3 inhibitors” (Bioorg Med Chem Lett, 2009).

The IC50 is the concentration at which inhibition is half-maximal.

The target of the assay is Tyrosine-protein kinase JAK2 (Homo sapiens, UniProt O60674).
Sequence of Tyrosine-protein kinase JAK2 (O60674 whole entry): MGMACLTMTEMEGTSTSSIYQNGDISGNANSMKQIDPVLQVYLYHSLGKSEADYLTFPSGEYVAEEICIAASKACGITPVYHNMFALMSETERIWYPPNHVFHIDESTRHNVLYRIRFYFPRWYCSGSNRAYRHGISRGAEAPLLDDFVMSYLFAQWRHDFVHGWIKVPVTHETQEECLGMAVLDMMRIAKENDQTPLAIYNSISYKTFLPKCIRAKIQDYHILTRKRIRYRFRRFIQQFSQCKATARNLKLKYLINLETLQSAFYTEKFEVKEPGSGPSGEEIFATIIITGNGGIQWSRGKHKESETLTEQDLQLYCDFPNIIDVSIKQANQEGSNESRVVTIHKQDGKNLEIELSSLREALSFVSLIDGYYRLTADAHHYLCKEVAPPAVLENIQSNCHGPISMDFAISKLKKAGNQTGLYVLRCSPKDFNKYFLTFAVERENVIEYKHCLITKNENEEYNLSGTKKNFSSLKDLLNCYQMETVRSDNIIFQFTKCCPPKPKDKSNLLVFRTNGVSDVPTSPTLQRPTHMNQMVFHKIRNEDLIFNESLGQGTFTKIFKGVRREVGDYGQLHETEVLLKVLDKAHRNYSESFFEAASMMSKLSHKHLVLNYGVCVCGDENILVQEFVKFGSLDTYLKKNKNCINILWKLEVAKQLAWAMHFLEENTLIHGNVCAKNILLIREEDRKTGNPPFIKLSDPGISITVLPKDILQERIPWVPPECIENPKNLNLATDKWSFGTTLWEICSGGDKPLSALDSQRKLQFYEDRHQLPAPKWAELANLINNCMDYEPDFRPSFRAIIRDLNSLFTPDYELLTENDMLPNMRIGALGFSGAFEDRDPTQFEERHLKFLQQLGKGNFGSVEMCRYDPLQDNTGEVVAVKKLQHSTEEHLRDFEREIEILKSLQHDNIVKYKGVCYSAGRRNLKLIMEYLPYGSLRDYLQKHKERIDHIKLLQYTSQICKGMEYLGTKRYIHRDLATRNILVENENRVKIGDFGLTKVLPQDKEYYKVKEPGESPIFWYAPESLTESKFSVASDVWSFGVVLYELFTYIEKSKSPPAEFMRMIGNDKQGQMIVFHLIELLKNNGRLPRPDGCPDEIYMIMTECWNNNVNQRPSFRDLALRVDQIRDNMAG
Description: Inhibition of human JAK2 (532-1132) by time resolved fluorescence assay
`N#Cc1ccc2ncn(-c3ncc4[nH]c(=O)n(Cc5c(F)cccc5F)c4n3)c2c1` had an IC50 of 28 nM.

In the case of `N#Cc1ccc2ncn(-c3ncc4[nH]c(=O)n(Cc5c(Cl)cccc5Cl)c4n3)c2c1`, half-maximal inhibition (IC50) required 1550 nM.

`N#Cc1ccc2ncn(-c3ncc4[nH]c(=O)n([C@@H]5CCOc6c(F)cccc65)c4n3)c2c1` yielded an IC50 of 5 nM.

`O=c1[nH]c2cnc(-n3cnc4ccc(Cl)cc43)nc2n1C1CCOCC1` returned an IC50 of 393 nM.

Compound `N#Cc1ccc2ncn(-c3ncc4[nH]c(=O)n(C5CCOCC5)c4n3)c2c1` gave an IC50 of 470 nM.

On to `N#Cc1ccc2ncn(-c3ncc4[nH]c(=O)n(Cc5cccc(F)c5F)c4n3)c2c1`, for which half-maximal inhibition (IC50) required 270 nM.

As to `O=c1[nH]c2cnc(-n3cnc4ccc(F)cc43)nc2n1Cc1c(F)cccc1F`, the IC50 was determined as 320 nM.

Compound `O=c1[nH]c2cnc(-n3cnc4ccccc43)nc2n1[C@@H]1CCOc2c(F)cccc21` yielded an IC50 of 333 nM.

On to `O=c1[nH]c2cnc(-n3cnc4ccccc43)nc2n1[C@H]1CCOc2c(F)cccc21`, for which the IC50 was 7000 nM.

In turn, `O=c1[nH]c2cnc(-n3cnc4ccc(Cl)cc43)nc2n1[C@@H]1CCOc2c(F)cccc21` showed an IC50 of 56 nM.

Compound `O=c1[nH]c2cnc(-n3cnc4ccc(F)cc43)nc2n1Cc1cccc(F)c1F` gave a concentration for half-maximal inhibition (IC50) of 1000 nM.

For the compound `O=c1[nH]c2cnc(-n3cnc4cc(C(F)(F)F)ccc43)nc2n1C1CCOCC1`, half-maximal inhibition (IC50) was put at 1800 nM.

As to `O=c1[nH]c2cnc(-n3cnc4ccc(C(F)(F)F)cc43)nc2n1C1CCOCC1`, the half-inhibitory concentration (IC50) was found to be 560 nM.

As to `O=c1[nH]c2cnc(-n3cnc4ccc(F)cc43)nc2n1C1CCOCC1`, the IC50 is 3400 nM.

With `O=c1[nH]c2cnc(-n3cnc4ccccc43)nc2n1C1CCOc2ccc(Cl)cc21` (racemic), half-maximal inhibition (IC50) was put at 500 nM.

Compound `O=c1[nH]c2cnc(-n3cnc4ccccc43)nc2n1C1CCOc2ccccc21` (racemic) gave an IC50 of 170 nM.

Take `O=c1[nH]c2cnc(-n3cnc4ccccc43)nc2n1C1CCOc2cccc(F)c21` (racemic): half-maximal inhibition (IC50) was put at 97 nM.

Compound `O=c1[nH]c2cnc(-n3cnc4ccccc43)nc2n1C1CCOc2cc(F)ccc21` (racemic) showed a half-maximal inhibitory concentration (IC50) of 95 nM.

In turn, `O=c1[nH]c2cnc(-n3cnc4ccccc43)nc2n1C1CCOc2c(F)cccc21` (racemic) returned an IC50 of 285 nM.

`O=c1[nH]c2cnc(-n3cnc4ccccc43)nc2n1C1CCOc2ccc(F)cc21` (racemic) registered an IC50 of 83 nM.
